Legend:
[1] = Comparative salt stability of pharmaceutical formulations after 1 week; format: physicochemical; settings: formulation as in Example 3
Procedure: Samples were made with 1% Citric Acid or Na2CO3 by first coating a mortar with mannitol. Omarigliptin was then triturated using the mortar and pestle with 0.1000 g mannitol then with 0.1000 g mannitol & 0.1000 g citric acid or Na2CO3 and then with equal amounts mannitol. The triturate was added to the remaining ingredients and blended initially with mortar and pestle and then transferred into a glass bottle and blended with a blender at medium speed for 15 mins. Magnesium stearate was passed through a 250 micron screen and the required quantity was dispensed and added to the powders in the bottle. The mixture was blended for 1 minute at medium speed. Tablets were compressed using a press having ¼″ normal concave punches at 100 mg unit weight:
Fumarate, phosphate and hydrochloride salts of omarigliptin were made and used in the manufacture of pharmaceutical formulations as described in Example 3. The pharmaceutical formulations containing the fumerate, phosphate and hydrochloride salts of omarigliptin as well as pharmaceutical formulations containing the free base were tested under various conditions for stability.

[2] = Formulation work on chemical stability of omarigliptin; format: physicochemical
From the text: One concern with developing an oral pharmaceutical formulation of omarigliptin is the chemical stability of the compound. […] Also omarigliptin stability is critically sensitive to drug loading with lower drug loadings becoming increasingly unstable in any formulation drug product. […] This degradation process with respect to free amines is described in Robertson et al., Maillard's Reaction and its Impliations for Amine Drugs in the Pharmaceutical Industry, Digital Edition of American Pharmaceutical Review, Volume 15, Issue 3, April 2012.

% Area ([1]; 5° C./50% RH closed) [%] | % LC ([1]; 5° C./50% RH closed) [%] | % Area ([1]; 50° C./75% RH/open) [%] | % LC ([1]; 50° C./75% RH/open) [%] | Total Degs. (Area %) ([1]; 50° C./75% RH/open) | % Area ([1]; 50° C./closed) [%] | % LC ([1]; 50° C./closed) [%] | Total Degs. (Area %) ([1]; 50° C./closed) | sensitivity to oxidation [2] | sensitivity to Maillard degradation (browning) ([2]; with excipients or other impurities that contain reducible sugar impurities) | Molecule | sensitivity to acid and base catalyzed hydrolysis ([2]; early formulation work)
95.9 | 79.6 | 93.8 | 69.5 | 2.0 | 94.3 | 75.9 | 1.6 |  |  | CS(=O)(=O)n1cc2c(n1)CN([C@H]1CO[C@H](c3cc(F)ccc3F)[C@@H](N)C1)C2.O=C(O)/C=C/C(=O)O [Fumerate] | 
98.69 | 75.5 | 95.3 | 62.5 | 3.6 | 97.6 | 71.8 | 1.3 |  |  | CS(=O)(=O)n1cc2c(n1)CN(C1COC(c3cc(F)ccc3F)C(N)C1)C2.Cl (centres unmarked) [HCl] | 
96.8 | 76.5 | 92.0 | 54.4 | 4.8 | 94.0 | 70.8 | 2.9 |  |  | Phosphate | 
98.8 | 88.5 | 97.1 | 82.0 | 1.7 | 97.9 | 85.9 | 0.9 |  |  | CS(=O)(=O)n1cc2c(n1)CN([C@H]1CO[C@H](c3cc(F)ccc3F)[C@@H](N)C1)C2 [Free Base I, (2R,3S,5R)-2-(2,5-Difluorophenyl)-5-[2-(methylsulfonyl)-2,6-dihydropyrrolo[3,4-c]pyrazol-5(4H)-yl]tetrahydro-2H-pyran-3-amine] | 
 |  |  |  |  |  |  |  | sensitive to oxidation | sensitive to Maillard degradation | CS(=O)(=O)n1cc2c(n1)CN([C@H]1CO[C@H](c3cc(F)ccc3F)[C@@H](N)C1)C2 [omarigliptin, (2R,3S,5R)-2-(2,5-Difluorophenyl)-5-[2-(methylsulfonyl)-2,6-dihydropyrrolo[3,4-c]pyrazol-5(4H)-yl]tetrahydro-2H-pyran-3-amine] | sensitive to acid and base catalyzed hydrolysis

— patent US9937153B2, “Oral pharmaceutical formulation of omarigliptin” (Merck Sharp & Dohme Corp., priority 2013, dated 2018)
